Experimental data reported in publication PMC12457078, “Inhibition of soluble epoxide hydrolase in endotoxin induced pig lung injury” (Frontiers in Pharmacology, 2025).
“And” between values parts separate entries of the source, which are not always exact repeats. Equal values may be shown once.

Tested on: sEH
Assay: oxylipin analysis, epoxide/diol ratios (target engagement)
Assay type: in vivo, pig
Parameters: 14,15-DiHETE: unit not given beside the values; 12,13-DiHOME / 9,10-DiHODE / 11,12-DiHETrE / 14,15-DiHETrE / 10,11-DiHDPE / 19,20-DiHDPE / 13-HODE / 5-HETE / 11-HETE / 12-HETE / 5-HEPE / 9(10)-EpOME / 12(13)-EpOME / EKODE / 11(12)-EpETE: unit not given here
Details: for 9,10,13-TriHOME / 9,12,13-TriHOME: bad chromatography; for 14,15-DiHETE: high blanks
Description: All animals were monitored with pulse oximetry, heart rate, ECG, systemic arterial blood pressure (ABP), pulmonary arterial pressure (PAP), central venous pressure (CVP) temperature, tidal volumes, respiratory rate and end tidal carbon dioxide. At baseline, and at 3 h, 6 h and at the end of the experiment, pulmonary capillary wedge pressure (PCWP) was measured together with arterial and venous blood gas analyses, as well as cardiac output calculations. Routine chemistry, including creatinine, bilirubin, glucose, electrolytes were collected at baseline and at the end of the experiment (Vetscan VS2®, Abaxis, Griesheim, Germany). Blood samples for measurement of AEPU plasma concentrations, as well as oxylipins (i.e., EpETrEs and their DiHETrE corresponding diols as well as related compounds with other polyunsaturated fatty acid precursors), were collected at baseline, 6 h and at the end of the experiment.
This meant nine subjects in each group to achieve 90% power of detecting a difference of this size given α = 0.05. Anticipating that not all experiments would reach completion, we used a sample size of 22. The results were analyzed using SPSS Statistics, version 24 (IBM Corp., Armonk, N.Y., United States). Normality was examined with the Shapiro-Wilk test, together with examination of histograms of data. Continuous variables were compared using Student’s t-test or Mann Whitney U test, as appropriate. Categorical variables were compared using Fischer’s exact test. Statistical significance was set at α < 0.05. Oxylipins with at least 80% of observations above limit of detection at both timepoints were included in pairwise comparisons of ratios and fold-change evaluations where observations below limit of detection (LOD) were substituted with 0.5 x LOD.

## CCOCCOCCOCCCCCNC(=O)NC12CC3CC(CC(C3)C1)C2 [sEH-i]
Time 0, individual pigs
  13-HOTrE: 1.38 and 2.03 and 0.71 and 0.95 and 0.65
  13-oxo-ODE: <LOD
  14(15)-EpETE: <LOD
  14(15)-EpETrE: <LOD
  14,15-DiHETrE: 0.82 and 0.55 and 0.35 and 0.43 and 0.51
  15(16)-EpODE: 12.33 and 9.22 and 4.38 and 5.90 and 3.04
  15,16-DiHODE: 22.17 and 16.83 and 10.14 and 20.63 and 11.96
  15-HEPE: <LOD
  15-HETE: 0.31 and 0.33 and 0.20 and 0.29 and 0.16
  15-HETrE: 0.19 and 0.21 and 0.13 and 0.18 and 0.10
  15-oxo-ETE: 0.03 and <LOD and 0.043 and 0.0266
  16(17)-EpDPE: <LOD
  16,17-DiHDPE: 0.10 and 0.0746 and 0.0252 and 0.0444 and 0.03
  17(18)-EpETE: <LOD
  17,18-DiHETE: 0.69 and 0.45 and 0.26 and 0.66 and 0.46
  17-HDoHE: <LOD
  19(20)-EpDPE: <LOD
  19,20-DiHDPE: 1.19 and 0.80 and 0.30 and 1.02 and 0.43
  20-HETE: 0.11 and 0.12 and 0.0652 and 0.10 and 0.0444
  EKODE: 0.36 and 0.27 and 0.38 and 0.31 and 0.33
  LTB4: <LOD and 0.17
  PGD2: <LOD
  PGE2: <LOD
  PGF2a: <LOD and 0.0428
  Resolvin D1: <LOD
  Resolvin D2: <LOD
  TXB2: 0.0943 and 0.19 and 0.08601 and 0.18
  9,10,13-TriHOME: 3.66 and 5.50 and 4.37 and 4.76 and 5.61
  9,12,13-TriHOME: <LOD
  14,15-DiHETE: 0.1158 and 0.09583 and 0.02876 and 0.02655 and 0.09648
Time 6, individual pigs
  5(6)-EpETrE: <LOD
  5,6-DiHETrE: <LOD
  5-HEPE: 0.06 and 0.18 and <LOD and 0.07 and 0.05
  5-HETE: 0.3567 and 0.58 and 0.2089 and 0.4225 and 0.4419
  5-oxo-ETE: 0.11 and 0.18 and <LOD and 0.14 and 0.15
  7(8)-EpDPE: <LOD
  7,8-DiHDPE: <LOD
  8(9)-EpETE: <LOD
  8(9)-EpETrE: <LOD
  8,9-DiHETE: <LOD
  8,9-DiHETrE: 0.10 and 0.07 and <LOD and 0.0449
  8-HETE: 0.07 and 0.09 and 0.04 and 0.12 and 0.0759
  9(10)-EpODE: 0.63 and 0.49 and 0.36 and 0.35 and 0.42
  9(10)-EpOME: 1.87 and 1.33 and 0.60 and 1.51 and 2.48
  9,10-DiHODE: 0.64 and 1.20 and 1.17 and 0.73 and 0.69
  9,10-DiHOME: 5.75 and 8.57 and 9.02 and 5.97
  9-HETE: <LOD
  9-HODE: 13.28 and 24.06 and 22.88 and 16.64 and 15.68
  9-HOTrE: 1.36 and 2.59 and 1.91 and 1.50 and 0.95
  9-oxo-ODE: <LOD
  10(11)-EpDPE: <LOD
  10,11-DiHDPE: 0.07 and 0.03 and 0.0327 and 0.02 and 0.0362
  11(12)-EpETE: 0.1179 and 0.09737 and 0.1269 and 0.06515 and 0.0705
  11(12)-EpETrE: 0.05 and 0.0441 and 0.0274 and 0.0271
  11,12-DiHETE: 0.0351 and 0.0319 and 0.0666 and 0.03 and 0.05
  11,12-DiHETrE: 0.86 and 0.62 and 1.36 and 0.66 and 0.92
  11-HETE: 0.42 and 0.30 and 0.66 and 0.25 and 0.40
  12(13)-EpODE: 1.12 and 0.79 and 0.95 and 0.91
  12(13)-EpOME: 5.25 and 4.08 and 1.60 and 5.63 and 7.56
  12,13-DiHODE: 1.01 and 1.89 and 1.53 and 1.48 and 1.36
  12,13-DiHOME: 16.00 and 24.72 and 21.84 and 22.49 and 19.00
  12-HEPE: 0.08 and 0.11 and 0.06 and 0.0632 and 0.04
  12-HETE: 1.11 and 0.86 and 0.59 and 0.65 and 0.46
  12-oxo-ETE: <LOD
  13(14)-EpDPE: <LOD
  13,14-DiHDPE: 0.15 and 0.10 and 0.13 and 0.06
  13-HODE: 42.16 and 101.75 and 49.69 and 56.11 and 42.57
  13-HOTrE: 1.94 and 6.77 and 3.06 and 2.84 and 1.84
  13-oxo-ODE: <LOD and 5.47
  14(15)-EpETE: <LOD
  14(15)-EpETrE: <LOD and 0.0855 and 0.08
  14,15-DiHETrE: 1.69 and 1.48 and 1.65 and 0.72 and 0.63
  15(16)-EpODE: 24.31 and 29.46 and 11.19 and 30.59 and 26.51
  15,16-DiHODE: 54.83 and 45.60 and 30.98 and 42.25 and 33.76
  15-HEPE: <LOD
  15-HETE: 0.63 and 0.86 and 0.43 and 0.48
  15-HETrE: 0.41 and 0.47 and 0.48 and 0.37 and 0.39
  15-oxo-ETE: 0.0346 and <LOD and 0.03 and 0.0128
  16(17)-EpDPE: <LOD
  16,17-DiHDPE: 0.19 and 0.20 and 0.14 and 0.0527 and 0.085
  17(18)-EpETE: <LOD
  17,18-DiHETE: 1.22 and 1.33 and 1.55 and 0.59 and 1.01
  17-HDoHE: <LOD
  19(20)-EpDPE: <LOD
  19,20-DiHDPE: 1.72 and 1.58 and 1.48 and 0.68 and 0.62
  20-HETE: 0.11 and 0.12 and 0.08 and 0.10
  EKODE: 0.88 and 0.74 and 0.47 and 0.87 and 1.05
  LTB4: <LOD and 0.28 and 0.38 and 0.18 and 0.43
  PGD2: <LOD and 0.01 and 0.00656
  PGE2: 0.095 and 0.06 and 0.20 and <LOD and 0.12
  PGF2a: 1.61 and 0.65 and 4.40 and 0.44 and 2.56
  Resolvin D1: <LOD
  Resolvin D2: <LOD
  TXB2: 2.92 and 3.83 and 2.22 and 1.21 and 1.79
  9,10,13-TriHOME: 2.86 and 3.12 and 7.92 and 7.73 and 5.56
  9,12,13-TriHOME: <LOD and 0.24
  14,15-DiHETE: 0.3645 and 0.4177 and 0.09663 and 0.04163 and 0.2578
